Results reported in patent publication US5103007A, “Lipids” (Takeda Chemical Industries, Ltd., priority 1988, dated 1992).
≈ marks a conversion by molar mass, not a printed value.

Assays:
[1] = system: human nasopharynx cancer (KB cells); assay: Inhibition of multiplication of human nasopharynx cancer (KB cells), MTT assay; assay type: cell-based; conditions: 72 hours
Method: (§1) The effect (IC50) of the compounds obtained by Examples in inhibiting multiplication of human nasopharynx cancer (KB cells) and human colon adenocarcinoma (colon 205 cells) Each well of a 96-well microtiter plate was inoculated with 0.1 ml of human nasopharynx cancer (KB cells) (1×10^4 /ml) or human colon adenocarcinoma (colon 205 cells) (2×10^4 /ml), which was then subjected to cultivation by allowing to stand at 37° C. for 24 hours in 5% CO2. To the culture was added a 10% MEM solution (manufactured by Nissui Seiyaku or RPMI-1640), and cultivation was continued at 37° C. for 72 hours in 5% CO2. Then, the culture solution was removed with a micro-pipette. […] Incubation was conducted at 37° C for 4 hours, to which was then added 0.1 ml of a 10% SDS (Wako Pure Chemical Industries, Ltd.), and the incubation was continued at 37° C. for 24 hours.

[2] = system: human colon adenocarcinoma (colon 205 cells); assay: Inhibition of multiplication of human colon adenocarcinoma (colon 205 cells), MTT assay; assay type: cell-based; conditions: 72 hours
Method: as §1

Row | IC50 [1] | IC50 [2] | Compound
1 | 0.32 µg/mL | 0.63 µg/mL | CCCCCCCCCCCCCCCCCCOCC(C[S+]([O-])CCOCC[n+]1ccc2ccccc2c1)Oc1ncccn1.[Cl-] (stereo not shown) [Ex. 4, N-[2-[2-[3-octadecyloxy-2-(pyrimidin-2-yloxy)propylsulfinyl]ethoxy]ethyl]isoquinolinium chloride]
2 | 0.16 µg/mL | 0.32 µg/mL | CCCCCCCCCCCCCCCCCCOCC(C[S+]([O-])CCOCC[n+]1cccc2ccccc21)Oc1ncccn1 (stereo not shown) [Ex. 5, N-[2-[2-[3-octadecyloxy-2-(pyrimidin-2-yloxy)propylsulfinyl]ethoxy]quinolinium chloride]
3 | 0.16 µg/mL | 0.63 µg/mL | CCCCCCCCCCCCCCCCCCOCC(C[S+]([O-])CCOCC[n+]1ccc(N(C)C)cc1)Oc1ncccn1.[Cl-] (stereo not shown) [Ex. 7, 4-dimethylamino-1-[2-[2-[3-octadecyloxy-2-(pyrimidin-2-yloxy)propylsulfinyl]ethoxy]ethyl]pyridinium chloride]
4 | 0.63 µg/mL (≈ 0.876 µM) | 1.25 µg/mL (≈ 1.74 µM) | CCCCCCCCCCCCCCCCCCOCC(CSCCCOCCC[n+]1ccn(CCCCCC(=O)[O-])c1)Oc1ncccn1 (stereo not shown) [Ex. 13, 6-[3-[3-[3-[3-octadecyloxy-2-(pyrimidin-2-yloxy)propylthio]propoxy]propyl]imidazolio-1-yl]hexanoate]
5 | 1.25 µg/mL | 1.25 µg/mL | CCCCCCCCCCCCCCCCCCOCC(CS(=O)(=O)CCCOCCC[n+]1ccsc1)Oc1ncccn1 (stereo not shown) [Ex. 15, 3-[3-[3-octadecyloxy-2-(pyrimidin-2-yloxy)propylsulfonyl]propoxy]propylthiazolium chloride]
6 | 0.16 µg/mL | 0.63 µg/mL | CCCCCCCCCCCCCCCCCCOCC(CS(=O)(=O)CCCOCCC[n+]1ccccc1)Oc1ncccn1.[Cl-] (stereo not shown) [Ex. 16, N-[3-[3-[3-octadecyloxy-2-(pyrimidin-2-yloxy)propylsulfonyl]propoxy]propyl]pyridinium chloride]
7 | 0.32 µg/mL | 1.25 µg/mL | CCCCCCCCCCCCCCCCCCOCC(CS(=O)(=O)CCCOCCC[N+](C)(C)C)Oc1ncccn1.[Cl-] (stereo not shown) [Ex. 17, N-[3-[3-[3-octadecyloxy-2-(pyrimidin-2-yloxy)propylsulfonyl]propoxy]propyl]-N,N,N-trimethylammonium chloride]
8 | 1.25 µg/mL | 1.25 µg/mL | CCCCCCCCCCCCCCCCCCOCC(C[S+]([O-])CCCOCCC[n+]1ccsc1)Oc1ncccn1 (stereo not shown) [Ex. 18, 3-[3-[3-octadecyloxy-2-(pyrimidin-2-yloxy)propylsulfinyl]propoxy]propylthiazolium chloride]
9 | < 0.08 µg/mL | 0.63 µg/mL | CCCCCCCCCCCCCCCCCCOCC(CS(=O)(=O)CCOCC[n+]1ccccc1)Oc1ncccn1.[Cl-] (stereo not shown) [Ex. 20, N-[2-[2-[3-octadecyloxy-2-(pyrimidin-2-yloxy)propylsulfonyl]ethoxy]ethyl]pyridinium chloride]
10 | 0.32 µg/mL | 1.25 µg/mL | CCCCCCCCCCCCCCCCCCOCC(CSCCOCC[N+]1(C)CCCC1)Oc1ncccn1.[Cl-] (stereo not shown) [Ex. 22, N-methyl-N-[2-[2-[3-octadecyloxy-2-(pyrimidin-2-yloxy)propylthio]ethoxy]ethyl]pyrrolidinium chloride]
11 | 0.63 µg/mL | 0.63 µg/mL | CCCCCCCCCCCCCCCCCCOCC(CSCCOCC[N+](C)(C)C)Oc1ncccn1.[Cl-] (stereo not shown) [Ex. 23, N-[2-[2-[3-octadecyloxy-2-(pyrimidin-2-yloxy)propylthio]ethoxy]ethyl]-N,N,N-trimethylammonium chloride]
12 | 0.32 µg/mL | 2.5 µg/mL | CCCCCCCCCCCCCCCCCCOCC(CSCCOCC[n+]1ccn(CCCCCC(=O)OCC)c1)Oc1ncccn1 (stereo not shown) [Ex. 25, 1-[(5-ethoxycarbonyl)pentyl]-3-[2-[2-[3-octadecyloxy-2-(pyrimidin-2-yloxy)propylthio]ethoxy]ethyl]imidazolium chloride]
13 | 1.25 µg/mL | 0.63 µg/mL | CCCCCCCCCCCCCCCCCCOCC(CSCCOCC[n+]1ccn(CCC(C)(C)C(=O)OCC)c1)Oc1ncccn1 (stereo not shown) [Ex. 26, 1-[(3-ethoxycarbonyl-3-methyl)butyl]-3-[2-[2-[3-octadecyloxy-2-(pyrimidin-2-yloxy)propylthio]-ethoxy]ethyl]imidazolium choride]
14 | 1.25 µg/mL (≈ 1.89 µM) | 5 µg/mL (≈ 7.56 µM) | O=C([O-])CCCn1cc[n+](CCOCCSCC(COCCCCCCCCCCCCC2CCCCC2)Oc2ncccn2)c1 (stereo not shown) [Ex. 28]
15 | < 0.08 µg/mL | 0.63 µg/mL | [Cl-].[O-][S+](CCOCC[n+]1ccccc1)CC(COCCCCCCCCCCCCC1CCCCC1)Oc1ncccn1 (stereo not shown) [Ex. 29, 1-[2-[2-[3-(12-cyclohexyldodecyloxy)-2-(pyrimidin-2yloxy)propylsulfinyl]ethoxy]ethyl]pyridinium chloride]
16 | 0.16 µg/mL | 0.32 µg/mL | CCCCCCCCCCCCCCCCCCOCC(C[S+]([O-])CCOCC[N+]1(C)CCCC1)Oc1ncccn1.[Cl-] (stereo not shown) [Ex. 30, N-methyl-N-[2-[2-[3-octadecyloxy-2-(pyrimidin-2-yloxy)propylsulfinyl]ethoxy]ethyl]pyrrolidinium chloride]
17 | 0.63 µg/mL | 1.25 µg/mL | CCCCCCCCCCCCCCCCCCOCC(CSCCOCC[n+]1ccccc1)Oc1ccncn1.[Cl-] (stereo not shown) [Ex. 32, N-[2-[2-[3-octadecyloxy-2-(pyrimidin-4-yloxy)propylthio]ethoxy]ethyl]pyridinium chloride]
18 | 0.63 µg/mL (≈ 0.912 µM) | 2.5 µg/mL (≈ 3.62 µM) | CCCCCCCCCCCCCCCCCCOCC(CSCCOCC[n+]1ccn(CCCCCC(=O)[O-])c1)Oc1ccncn1 (stereo not shown) [Ex. 33, 6-[3-[2-[2-[3-octadecyloxy-2-(pyrimidin-4-yloxy)propylthio]ethoxy]ethyl]imidazolio-1-yl]hexanoate]
19 | 0.32 µg/mL | 0.63 µg/mL | CCCCCCCCCCCCCCCCCCOCC(C[S+]([O-])CCOCC[n+]1ccccc1)Oc1ccncn1.[Cl-] (stereo not shown) [Ex. 34, N-[2-[2-[3-octadecyloxy-2-(pyrimidin-4-yloxy)propylsulfinyl]ethoxy]ethyl]pyridinium chloride]
20 | 0.16 µg/mL | 0.63 µg/mL | CCCCCCCCCCCCCCCCCCOCC(C[S+]([O-])CCOCC[N+](C)(C)C)Oc1ccncn1.[Cl-] (stereo not shown) [Ex. 35, N-[2-[2-[3-octadecyloxy-2-(pyrimidin-4-yloxy)propylsulfinyl]ethoxy]ethyl]-N,N,N-trimethylammonium chloride]
21 | 0.32 µg/mL (≈ 0.465 µM) | 5 µg/mL (≈ 7.27 µM) | CCCCCCCCCCCCCCCCCCOCC(CSCCOCC[n+]1cccc(CCCCC(=O)[O-])c1)Oc1ncccn1 (stereo not shown) [Ex. 37, 5-[1-[2-[2-[3-octadecyloxy-2-(pyrimidin-2-yloxy)propylthio]ethoxy]ethyl]pyridinio-3-yl]pentanoate]
22 | 0.63 µg/mL (≈ 0.876 µM) | 2.5 µg/mL (≈ 3.48 µM) | CC(C)CCCC(C)CCCC(C)CCCC(C)CCOCC(CSCCOCC[n+]1ccn(CCCCCC(=O)[O-])c1)Oc1ncccn1 (stereo not shown) [Ex. 38, 6-[3-[2-[2-[2-(pyrimidin-2-yloxy)-3-(3,7, 11,15-tetramethylhexadecyloxy)propylthio]ethoxy]ethyl]-imidazolio-1-yl)hexanoate]
23 | 0.16 µg/mL | 0.63 µg/mL | CC(C)CCCC(C)CCCC(C)CCCC(C)CCOCC(C[S+]([O-])CCOCC[n+]1ccccc1)Oc1ncccn1.[Cl-] (stereo not shown) [Ex. 39, N-[2-[2-[2-(pyrimidin-2-yloxy)-3-(3,7,11, 15-tetramethylhexadecyloxy)propylsulfinyl]ethoxy]ethyl]-pyridinium chloride]
